What was measured:
[1] = test system: embryoid bodies from ES cells (E14 cells or B6 cells); assay: Formation of heart (autonomically beating cardiac muscle-like cell aggregates) from embryoid bodies using RXR ligand; assay type: cell-based, mouse; design: frequency of appearance of autonomically beating cardiac muscle-like cell aggregates: dose or concentration left out as unconfirmed
Method: (§1) As ES cells, E 14 cells of the 29 mouse strain (ATCC #: CRL-1821) or B6 cells of the C57BL mouse strain (ATCC #: SCRC-1002) were used. Mouse fetal fibroblasts prepared from a mouse embryo on the 13th day were inoculated on a 0.1% gelatin-coated culture dish, and cultured in a medium containing 12% fetal bovine serum (Gibco), 100 U/ml penicillin (Sigma) and 100 μg/ml streptomycin (Sigma) for 24 hours. These cells were treated with 10 μg/ml mytomicin C (MMC, Sigma) for four hours to inhibit cell division and then washed twice with phosphate-buffered saline (PBS) to remove MMC. The ES cells were inoculated on these fibroblasts (feeder). As the medium for the ES cells, D-MEM (high glucose, Gibco) containing 15% fetal bovine serum for ES (Gibco), 2 mM L-glutamine (Gibco), MEM non-essential amino acid (Sigma), 1 mM sodium pyruvate (Gibco), 0.0007% β-mercaptoethanol (Sigma), 1000 U/ml Leukemia inhibiting factor (Chemicon), 100 U/ml penicillin (Sigma) and 100 μg/ml streptomycin (Sigma) was used, and the cells were cultured in a CO2 incubator (5% CO2, 100% humidity) at 37° C. The medium was exchanged every day.
(§2) Subculture was performed 72 hours after the inoculation of the ES cells. MMC-treated feeder cells (mouse fetus fibroblasts) were inoculated on a gelatin-coated culture dish, and after 24 hours, the ES cells completely dissociated by a treatment with 0.05% trypsin-0.02% EDTA were inoculated to allow formation of colonies (see, FIG. 1). The ES cells were cultured for three days after the inoculation to allow formation of colonies, and a colony was isolated by pipetting and then inoculated on a culture dish for bacteria with an extremely low cell attachment property. As the medium, D-MEM (high glucose) containing 15% Knockout SR (KSR, Gibco), 100 U/ml penicillin and 100 μg/ml streptomycin was used. The cells were further cultured for three days under this condition to prepare embryoid bodies (FIG. 2). […]

[2] = test system: embryoid bodies from ES cells; assay: Formation of adipocytes from embryoid bodies using RXR ligand; assay type: cell-based, mouse; design: adipocytes formed in comparison with the control group (all-trans retinoic acid): dose or concentration left out as unconfirmed
Method: as §1, §2

[3] = test system: embryoid bodies from ES cells; assay: Formation of smooth muscle-like cells from embryoid bodies using RXR ligand; assay type: cell-based, mouse; details: 1×10^−5 to 2×10^−6 M PA024, then further cultured
Method: as §1
Subculture was performed 72 hours after the inoculation of the ES cells. […]

[4] = test system: animal cap cells (pluripotent cell aggregates) at the blastula stage; details: activin at a high concentration; cited from earlier work

Molecule: CC1(C)CCC(C)(C)c2cc(N(CC3CC3)c3ncc(C(=O)O)cn3)ccc21 [PA024, 2-[N-cyclopropylmethyl-N-(5,6,7,8-tetrahydro-5,5,8,8-tetramethylnaphthalen-2-yl)amino]pyrimidine-5-carboxylic acid]
- formation of cardiac muscle-like cell aggregates ([1]; 2×10−6 M PA024): 0.5 cell aggregate per embryoid body
- frequency of appearance of autonomically beating cardiac muscle-like cell aggregates ([1]; PA024, cultured for 2 days): 0.2 cell aggregate per embryoid body
- time of appearance of adipocytes ([2]; 1×10^−5 to 2×10^−6 M PA024): about two
- adipocyte formation in terms of the value per embryoid body ([2]; 1×10^−5 to 2×10^−6 M PA024, culture continued for 20 days): ~100%
- adipocytes formed in comparison with the control group (all-trans retinoic acid) ([2]; PA024 treated group versus all-trans retinoic acid control): two or three times more
- time of formation of smooth muscle-like cells [3]: one to two

Molecule: CC1=C(/C=C/C(C)=C/C=C/C(C)=C/C(=O)O)C(C)(C)CCC1 [all-trans retinoic acid]
- differentiation of cardiac muscle-like cells ([1]; control group treated with 1×10^−5 M, over two weeks after the treatment): almost no differentiation

Molecule: activin
- formation rate of rhythmically beating heart [4]: 60%

Source: patent US8105833B2, “Method for forming organ” (Research Foundation Itsuu Laboratory, priority 2003, dated 2012)
